Measurements published in US20240425523A1, “Compounds for the Degradation of EGFR Kinase” (Beigene Switzerland GMBH, priority 2023, published 2024).

Key:
Assay type in all cases: cell-based
[1] = target: T1, EGFR L858R (BaF3-L858R cells) (Homo sapiens, UniProt P00533, L858R); test: Cell degradation of EGFR, HTRF assay, BaF3-L858R cells; settings: 16 h treatment; for DC50: EGFR degradation; for Dmax: maximum percentage of degradation
T1 construct: host or cells: BaF3
In short: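 BaF3-L858R cells treated 16 h at 37° C, 5% CO2 with compound (top 10 uM final, 5-fold, 8 doses, 0.1% DMSO). DC50 from four-parameter fit; Dmax is maximum percent degradation.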

[2] = target: T2, EGFR-L858R/C797S (H1975-clone #8 cells) (Homo sapiens, UniProt P00533, C797S/L858R); test: Cell degradation of EGFR, HTRF assay, H1975-clone#8 (L858R/C797S) cells; settings: 16 h treatment; for DC50: EGFR degradation; for Dmax: maximum percentage of degradation
T2 construct: expressed in transfected cells; host or cells: H1975 (endogenous EGFR knocked out, clone #8)

[3] = target: T3, p-EGFR L858R (BaF3-L858R cells) (Homo sapiens, UniProt P00533, L858R); test: Cell p-EGFR inhibition assay, HTRF, BaF3-L858R cells; settings: 16 h treatment; for Imax (%): maximum percentage of pEGFR inhibition; for IC50: pEGFR inhibition
T3 construct: host or cells: BaF3
In short: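 BaF3-L858R cells treated 16 h at 37 °C, 5% CO2 with compound from 10 uM top, 5-fold dilutions, 8 doses, in 0.1% DMSO medium. Lysates read overnight by HTRF p-EGFR antibodies; IC50 fitted to four-parameter curve against DMSO high control.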

[4] = target: p-EGFR Del19/C797S (H1975-clone #23 cells) (Homo sapiens, UniProt P00533); test: Cell p-EGFR inhibition assay, HTRF, H1975-clone#23 (DEL19/C797S) cells; settings: 16 h treatment; for Imax (%): maximum percentage of pEGFR inhibition; for IC50: pEGFR inhibition
In short: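 Phospho-EGFR read by overnight HTRF on lysates, normalized to DMSO-treated high control; IC50, Hill slope and Imax fitted. Compounds were applied for 16 h (10 uM top, 5-fold steps, 8 doses) to an H1975 single clone carrying only exogenous Del19/C797S EGFR after sgRNA knockout of endogenous copies.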

Structure (SMILES) | DC50 [1] [nM] | Dmax [1] [%] | DC50 [2] [nM] | Dmax [2] [%] | Imax (%) [3] [%] | IC50 [3] [nM] | Imax (%) [4] [%] | IC50 [4] [nM]
Cc1cc2cc(n1)-c1cnn(C)c1OC[C@H]1CC[C@H](C1)CN1/C(=N/C2=O)Nc2ccc(N3CCC(N4CC(Nc5cc(F)c([C@H]6CCC(=O)NC6=O)c(F)c5)C4)CC3)cc21 [Example 112, (R)-3-(4-((1-(1-((7^1R,7^3S,E)-1^1,2^6-dimethyl-3-oxo-5^2,5^3-dihydro-1^1H,5^1H-9-oxa-4-aza-5(2,1)-benzo[d]imidazola-2(2,4)-pyridina-1(4,5)-pyrazola-7(1,3)-cyclopentanacyclononaphane-5^6-yl)piperidin-4-yl)azetidin-3-yl)amino)-2,6-difluorophenyl)piperidine-2,6-dione] | 2.2 | 72.8 | 0.41 | 67.5 | 104.4 | 15.4 | 98.9 | 0.4
Cc1cc2cc(n1)-c1cnn(C)c1OC[C@H]1CCC(C1)CN1/C(=N/C2=O)Nc2ccc(N3CCC(N4CCC(Oc5cc(F)c([C@H]6CCC(=O)NC6=O)c(F)c5)CC4)CC3)cc21 [Example 113, (R)-3-(4-((1′-((7^1R,7^3S,E)-1^1,2^6-dimethyl-3-oxo-5^2,5^3-dihydro-1^1H,5^1H-9-oxa-4-aza-5(2,1)-benzo[d]imidazola-2(2,4)-pyridina-1(4,5)-pyrazola-7(1,3)-cyclopentanacyclononaphane-5^6-yl)-[1,4′-bipiperidin]-4-yl)oxy)-2,6-difluorophenyl)piperidine-2,6-dione] | 3.49 | 70.5 | 2.69 | 77.3 | 94.6 | 17.1 | 99 | 0.7
Cc1cc2cc(n1)-c1cnn(C)c1OC[C@H]1CCC(C1)CN1/C(=N/C2=O)Nc2ccc(N3CCN(C4(CO)CCN(c5ccc(C6CCC(=O)NC6=O)nc5C)CC4)CC3)cc21 (some centres unmarked) [Example 114, 3-(5-(4-(4-((7^1R,7^3S,E)-1^1,2^6-dimethyl-3-oxo-5^2,5^3-dihydro-1^1H,5^1H-9-oxa-4-aza-5(2,1)-benzo[d]imidazola-2(2,4)-pyridina-1(4,5)-pyrazola-7(1,3)-cyclopentanacyclononaphane-5^6-yl)piperazin-1-yl)-4-(hydroxymethyl)piperidin-1-yl)-6-methylpyridin-2-yl)piperidine-2,6-dione] | 3.11 | 75.7 | 1.09 | 82 | 98.4 | 7.3 | 100.5 | 0.4
Cc1cc2cc(n1)-c1cnn(C)c1OC[C@H]1CCC(C1)CN1/C(=N/C2=O)Nc2ccc(N3CCN([C@@H]4CCN(c5ccc(OC6CCC(=O)NC6=O)cc5F)C[C@@H]4F)CC3)cc21 (stereo partly drawn) [Example 115, 3-(4-((3S,4R)-4-(4-((7^1R,7^3S,E)-1^1,2^6-dimethyl-3-oxo-5^2,5^3-dihydro-1^1H,5^1H-9-oxa-4-aza-5(2,1)-benzo[d]imidazola-2(2,4)-pyridina-1(4,5)-pyrazola-7(1,3)-cyclopentanacyclononaphane-5^6-yl)piperazin-1-yl)-3-fluoropiperidin-1-yl)-3-fluorophenoxy)piperidine-2,6-dione] | 1.6 | 81.9 | 2.84 | 81.1 | 97.7 | 3.9 | 99.8 | 1.3
Cc1cc2cc(n1)-c1cnn(C)c1OC[C@H]1CCC(C1)CN1/C(=N/C2=O)Nc2ccc(N3CC4(C3)CN(C3CCN(c5cc(F)c([C@H]6CCC(=O)NC6=O)c(F)c5)CC3)C4)cc21 [Example 117, (R)-3-(4-(4-(6-((7^1R,7^3S,E)-1^1,2^6-dimethyl-3-oxo-5^2,5^3-dihydro-1^1H,5^1H-9-oxa-4-aza-5(2,1)-benzo[d]imidazola-2(2,4)-pyridina-1(4,5)-pyrazola-7(1,3)-cyclopentanacyclononaphane-5^6-yl)-2,6-diazaspiro[3.3]heptan-2-yl)piperidin-1-yl)-2,6-difluorophenyl)piperidine-2,6-dione] | 1.11 | 78 | 0.92 | 80.6 | 97.1 | 14.9 | 100 | 0.6
COC[C@@H]1CN(c2ccc3c(c2)N2CC4CC[C@H](COc5c(cnn5C)-c5cc(cc(C)n5)C(=O)/N=C/2N3)C4)CCN1C1CCN(c2ccc(NC3CCC(=O)NC3=O)cc2C)CC1 (stereo partly drawn) [Example 118, 3-((4-(4-((S)-4-((7^1R,7^3S,E)-1^1,2^6-dimethyl-3-oxo-5^2,5^3-dihydro-1^1H,5^1H-9-oxa-4-aza-5(2,1)-benzo[d]imidazola-2(2,4)-pyridina-1(4,5)-pyrazola-7(1,3)-cyclopentanacyclononaphane-5^6-yl)-2-(methoxymethyl)piperazin-1-yl)piperidin-1-yl)-3-methylphenyl)amino)piperidine-2,6-dione] | 2.64 | 79 | 5.97 | 73.7 | 98.5 | 7.3 | 100.2 | 1.3
Cc1cc2cc(n1)-c1cnn(C)c1OC[C@H]1CCC(C1)CN1/C(=N/C2=O)Nc2ccc(N3CCN(C4CCN(c5cc(F)c(C6CCC(=O)NC6=O)c(F)c5)CC4)[C@@H](C)C3)cc21 (stereo partly drawn) [Example 119, (R)-3-(4-(4-((S)-4-((7^1R,7^3S,E)-1^1,2^6-dimethyl-3-oxo-5^2,5^3-dihydro-1^1H,5^1H-9-oxa-4-aza-5(2,1)-benzo[d]imidazola-2(2,4)-pyridina-1(4,5)-pyrazola-7(1,3)-cyclopentanacyclononaphane-5^6-yl)-2-methylpiperazin-1-yl)piperidin-1-yl)-2,6-difluorophenyl)piperidine-2,6-dione] | 2.47 | 77 | 2.3 | 74.6 | 94.3 | 18.2 | 100.8 | 0.6
Cc1cc2cc(n1)-c1cnn(C)c1OC[C@H]1CCC(C1)CN1/C(=N/C2=O)Nc2ccc(N3CCC4(CC3)CN(C3CCN(c5cc(F)c([C@H]6CCC(=O)NC6=O)c(F)c5)CC3)C4)cc21 [Example 120, (R)-3-(4-(4-(7-((7^1R,7^3S,E)-1^1,2^6-dimethyl-3-oxo-5^2,5^3-dihydro-1^1H,5^1H-9-oxa-4-aza-5(2,1)-benzo[d]imidazola-2(2,4)-pyridina-1(4,5)-pyrazola-7(1,3)-cyclopentanacyclononaphane-5^6-yl)-2,7-diazaspiro[3.5]nonan-2-yl)piperidin-1-yl)-2,6-difluorophenyl)piperidine-2,6-dione] | 3.14 | 70.8 | 0.55 | 65.7 | 94.2 | 15.6 | 99.1 | 1.1
COC[C@@H]1CN(c2ccc3c(c2)N2C[C@@H]4CCC(COc5c(c(C)nn5C)-c5cc(cc(C)n5)C(=O)/N=C/2N3)C4)CCN1C1CN(C2CCN(c3cc(F)c([C@H]4CCC(=O)NC4=O)c(F)c3)CC2)C1 [Example 121, (R)-3-(2,6-difluoro-4-(4-(3-((S)-2-(methoxymethyl)-4-((7R,7^3S,E)-1^1,1^3 2^6-trimethyl-3-oxo-5^2,5^3-dihydro-1^1H,5^1H-9-oxa-4-aza-5(2,1)-benzo[d]imidazola-2(2,4)-pyridina-1(4,5)-pyrazola-7(1,3)-cyclopentanacyclononaphane-5^6-yl)piperazin-1-yl)azetidin-1-yl)piperidin-1-yl)phenyl)piperidine-2,6-dione] | 1.06 | 82.2 | 0.98 | 88.3 | 96.6 | 6 | 100.8 | 0.7
Cc1cc2cc(n1)-c1cnn(CCO)c1OC[C@H]1CCC(C1)CN1/C(=N/C2=O)Nc2ccc(N3CCN(C4CCN(c5cc(F)c([C@H]6CCC(=O)NC6=O)c(F)c5)CC4)CC3)cc21 [Example 122, (R)-3-(2,6-difluoro-4-(4-(4-((7^1R,7^3S,E)-1^1-(2-hydroxyethyl)-2^6-methyl-3-oxo-5^2,5^3-dihydro-1^1H,5^1H-9-oxa-4-aza-5(2,1)-benzo[d]imidazola-2(2,4)-pyridina-1(4,5)-pyrazola-7(1,3)-cyclopentanacyclononaphane-5^6-yl)piperazin-1-yl)piperidin-1-yl)phenyl)piperidine-2,6-dione] | 4.53 | 70.7 | 3.24 | 52.2 | 96.8 | 11 | 98.9 | 0.5
